From US12102637B2, “Pharmaceutical formulations for treating endometriosis, uterine fibroids, polycystic ovary syndrome or adenomyosis” (AbbVie Inc., priority 2017, dated 2024)

How the values were obtained:
[1] = Pharmacokinetics in renal impairment; type: in vivo, human; conditions: moderate to severe or end stage renal disease vs normal renal function
Excerpt: The mean exposures are similar for women with moderate to severe or end stage renal disease (including women on dialysis) compared to women with normal renal function.

pKa of elagolix = type: physicochemical
[2] = system: women treated in Studies EM-I and EM-II; assay: Adverse reactions in Studies EM-I and EM-II; type: in vivo, human; conditions: for Percentage of Patients with Amenorrhoea / Percentage of Patients with Anxiety / Percentage of Patients with Arthralgia / Percentage of Patients with Headache / Percentage of Patients with Hot Flush / Percentage of Patients with Insomnia / Percentage of Patients with Nasopharyngitis / Percentage of Patients with Nausea / Percentage of Patients with Sinusitis / Percentage of Patients with Upper Respiratory Tract Infection: Studies EM-I and EM-II; for discontinuations due to hot flush / discontinuations due to nausea / patients who discontinued therapy due to adverse reactions: EM-I and EM-II
Excerpt: The population age range was 18-49 years old. Women who completed six months of treatment and met eligibility criteria continued treatment in two blinded six-month extension studies, for a total treatment duration of up to 12 months.

[3] = system: bone mineral density (BMD); assay: Bone mineral density by DXA (lumbar spine, Z-score) in placebo-controlled and extension studies; type: in vivo, human; conditions: for patients with Z-score below the normal lower bound of −2.0: following 12 months of treatment
Method: In the placebo-controlled and extension clinical studies, BMD was measured by DXA. Changes observed in BMD at other anatomical sites (femoral neck, total hip) were generally smaller than lumbar spine.

[4] = target: T1, organic anion transporting polypeptide (OATP)1B1 (Homo sapiens, UniProt Q9Y6L6); assay: Elagolix as substrate of OATP1B1
T1 sequence (Q9Y6L6 1-691): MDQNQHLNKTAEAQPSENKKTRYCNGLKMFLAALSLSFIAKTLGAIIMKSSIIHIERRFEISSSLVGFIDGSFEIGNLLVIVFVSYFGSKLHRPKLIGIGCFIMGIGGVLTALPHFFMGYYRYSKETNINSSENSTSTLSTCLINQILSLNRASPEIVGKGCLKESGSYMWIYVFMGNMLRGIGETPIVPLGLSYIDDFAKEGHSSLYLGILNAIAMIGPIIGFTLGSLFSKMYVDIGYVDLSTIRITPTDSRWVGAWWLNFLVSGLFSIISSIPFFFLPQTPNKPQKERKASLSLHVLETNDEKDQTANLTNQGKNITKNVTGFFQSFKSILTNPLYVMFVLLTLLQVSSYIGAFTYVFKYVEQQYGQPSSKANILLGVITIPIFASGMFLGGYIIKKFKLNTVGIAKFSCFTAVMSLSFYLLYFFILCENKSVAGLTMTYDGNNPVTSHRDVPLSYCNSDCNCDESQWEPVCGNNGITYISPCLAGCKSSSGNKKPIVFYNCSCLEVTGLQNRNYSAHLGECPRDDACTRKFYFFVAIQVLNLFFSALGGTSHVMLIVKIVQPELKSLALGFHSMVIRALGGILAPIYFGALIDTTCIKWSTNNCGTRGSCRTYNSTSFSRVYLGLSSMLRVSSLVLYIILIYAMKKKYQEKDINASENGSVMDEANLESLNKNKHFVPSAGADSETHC
Excerpt: Elagolix is a substrate of CYP3A, P-gp, and organic anion transporting polypeptide (OATP)1B1. Clinically meaningful interactions are not expected when elagolix is co-administered with drugs that inhibit CYP3A or P-gp.

[5] = system: premenopausal women with endometriosis with associated pain; assay: Blinded extension studies EM-III and EM-IV (12 months); type: in vivo, human; conditions: patients maintained on their dose
Excerpt: Each placebo-controlled study assessed the reduction in endometriosis-associated pain over 6 months of treatment. More than 75 percent of women who completed Study EM-I and EM-II enrolled in the extension studies for an additional 6 months treatment period. Subjects were followed for up to 12 months post-treatment. In study EM-IV, efficacy was maintained when elagolix was taken with and without food.

healthy women = assay: 3-menstrual cycle study in healthy women (ovulation, endometrial thickness); type: in vivo, human; conditions: 150 mg QD and 200 mg BID, vs pretreatment
[6] = Mutagenicity studies, in vitro and in vivo test systems
Excerpt: Mutagenicity studies have been performed with elagolix using in vitro and in vivo test systems.

[7] = system: women treated in Studies EM-1 and EM-2; assay: Suicidal ideation, suicidal behavior and mood disorders in Studies EM-1 and EM-2; type: in vivo, human
Excerpt: Patients with depressive symptoms should be evaluated to determine whether the risks of continued therapy outweigh the benefits. Patients with new or worsening depression, anxiety or other mood changes should be referred to a mental health professional, as appropriate. Patients with suicidal ideation and behavior should seek immediate medical attention. Benefits and risks of continuing elagolix should be revaluated if such events occur and optionally, elagolix should be stopped with worsening or serious depression, anxiety, mood changes or suicidal ideation.
In the placebo-controlled trials (Studies EM-1 and EM-2), elagolix was associated with adverse mood changes, particularly in those with a history of depression.

[8] = Pharmacokinetics in hepatic impairment; type: in vivo, human
Excerpt: Elagolix exposures (Cmax and AUC) are similar between women with normal hepatic function and women with mild hepatic impairment. Elagolix exposures in women with moderate and severe hepatic impairment are approximately 3-fold and 7-fold, respectively, of exposures from women with normal hepatic function.
Compared to women with normal liver function, those with moderate hepatic impairment had approximately 3-fold higher elagolix exposures and those with severe hepatic impairment had approximately 7-fold higher elagolix exposures. Because of these increased exposures and risk for bone loss: Elagolix 150 mg once daily is recommended for women with moderate hepatic impairment (Child-Pugh B) with the duration of treatment limited to 6 months. Use of elagolix 200 mg twice daily is not recommended for women with moderate hepatic impairment. Elagolix is contraindicated in women with severe hepatic impairment (Child-Pugh C).

[9] = Elagolix 150 mg QD, On Treatment Month 6
[10] = Elagolix 150 mg QD, On Treatment Month 12
[11] = Elagolix 200 mg BID, On Treatment Month 6
[12] = Elagolix 200 mg BID, On Treatment Month 12

## COc1cccc(-c2c(C)n(Cc3c(F)cccc3C(F)(F)F)c(=O)n(C[C@H](NCCCC(=O)O)c3ccccc3)c2=O)c1F [Compound A, 4-((R)-2-[5-(2-fluoro-3-methoxy-phenyl)-3-(2-fluoro-6-trifluoromethyl-benzyl)-4-methyl-2,6-dioxo-3,6-dihydro-2H-pyrimidin-1-yl]-1-phenyl-ethylamino)-butyric acid]
[1]
  exposures (Cmax and AUC) in renal impairment: not altered by renal impairment
pKa of elagolix
  pKa: ~7.89
[2]; 150 mg QD, N = 475
  Percentage of Patients with Amenorrhoea: 4%
  Percentage of Patients with Anxiety: 3%
  Percentage of Patients with Arthralgia: 3%
  Percentage of Patients with Headache: 17%
  Percentage of Patients with Hot Flush: 23%
  Percentage of Patients with Insomnia: 6%
  Percentage of Patients with Nasopharyngitis: 6%
  Percentage of Patients with Nausea: 11%
  Percentage of Patients with Sinusitis: 5%
  Percentage of Patients with Upper Respiratory Tract Infection: 6%
[2]; 200 mg BID, N = 477
  Percentage of Patients with Amenorrhoea: 7%
  Percentage of Patients with Anxiety: 5%
  Percentage of Patients with Arthralgia: 5%
  Percentage of Patients with Headache: 20%
  Percentage of Patients with Hot Flush: 45%
  Percentage of Patients with Insomnia: 9%
  Percentage of Patients with Nasopharyngitis: 6%
  Percentage of Patients with Nausea: 16%
  Percentage of Patients with Sinusitis: 6%
  Percentage of Patients with Upper Respiratory Tract Infection: 4%
[2]; 150 mg QD
  discontinuations due to hot flush: 0.8%
  discontinuations due to nausea: 0.8%
  patients who discontinued therapy due to adverse reactions: 5.5%
[2]; 200 mg BID
  discontinuations due to hot flush: 2.5%
  discontinuations due to nausea: 1.5%
  patients who discontinued therapy due to adverse reactions: 9.6%
[2]; majority assessed as mild to moderate
  Events of hot flushes: dose-dependent
[3]; [9]
  % Subjects Z-score ≤ −1.5 of Lumbar Spine: 0.8%
  Mean Percent Change From Baseline in Bone Mineral Density of Lumbar Spine: −0.52%
[3]; [10]
  % Subjects Z-score ≤ −1.5 of Lumbar Spine: 1.3%
  Mean Percent Change From Baseline in Bone Mineral Density of Lumbar Spine: −0.87%
[3]; [11]
  % Subjects Z-score ≤ −1.5 of Lumbar Spine: 4.1%
  Mean Percent Change From Baseline in Bone Mineral Density of Lumbar Spine: −2.54%
[3]; [12]
  % Subjects Z-score ≤ −1.5 of Lumbar Spine: 5.1%
  Mean Percent Change From Baseline in Bone Mineral Density of Lumbar Spine: −3.76%
[3]; both elagolix treatment groups, lumbar spine, total hip and femoral neck, post-treatment months 6 and 12
  BMD after stopping treatment: progressive recovery of BMD
[3]; 150 mg daily dose
  patients with Z-score below the normal lower bound of −2.0: no patient
[3]; 200 mg BID dose
  patients with Z-score below the normal lower bound of −2.0: less than 1%
[4]
  substrate of organic anion transporting polypeptide (OATP)1B1: substrate
[5]
  durability of improvement in dysmenorrhea, NMPP and dyspareunia: demonstrated for a total of 12 months
Healthy women
  mean endometrial thickness (transvaginal ultrasound): dose dependent decrease in the mean endometrial thickness
[6]
  mutagenic or clastogenic potential: no evidence of a mutagenic or clastogenic potential
[7]; 150 mg Once Daily (N = 475)
  Completed Suicide, %: 0.2%
  Depressed Mood, depression, depressive symptoms and or tearfulness, %: 2.7%
  Mood altered, mood swings, %: 5.7%
  Suicidal ideation, %: 0.2%
[7]; 200 mg Twice Daily (N = 477)
  Depressed Mood, depression, depressive symptoms and or tearfulness, %: 6.1%
  Mood altered, mood swings, %: 5.2%
  Suicidal ideation, %: 0.2%
[7]; vs placebo
  incidence of depression and mood changes: higher incidence of depression and mood changes compared to placebo
[8]; mild hepatic impairment
  exposures (Cmax and AUC) vs normal hepatic function: similar
[8]; moderate hepatic impairment
  exposures vs normal hepatic function: approximately 3 fold
[8]; severe hepatic impairment, listed as Elagolix
  exposures vs normal hepatic function: ~7 fold
[8]; severe hepatic impairment, listed as elagolix
  exposures vs normal hepatic function: approximately 7 fold
